Source: patent US20110039721A1, “METHOD FOR PREDICTION ABOUT CARCINOGENICITY OF SUBSTANCE IN RODENT” (Chemicals Evaluation and Research Institute, priority 2007, published 2011)

Legend:
[1] = system: mRNA expressed from the genes (A) to (D) in rat liver; assay: Behavior of genes (mRNA expression level, oligo-DNA microarray) in rat liver after 28-day oral administration; type: in vivo
Description: A test solution was prepared by dissolving each of the carcinogens and the non-carcinogens shown in Tables 2 to 6 in the corresponding solvent shown in Tables 2 to 6. Each of the thus prepared test solutions and the solvents used for the preparation was administered by oral gavage to rats in each group. As the rats, male rats (F344 SPF rats) at 5 weeks of age obtained from Charles River Laboratories Japan, Inc. were used. The animals were divided into groups, each containing four individuals. The volume of the solvent administered to the vehicle control group was set to the same volume as that of the test solution administered to the carcinogen administration group or the non-carcinogen administration group. The administration of the test solution or the solvent was performed once daily for 28 days. Apiece was excised from the liver of each of the rats after a lapse of 28 days from the initiation of the administration, and the total RNA was extracted and purified.
The expression level of mRNA was compared between each of the chemical substance administration groups and the corresponding vehicle control group, and genes that satisfy the requirements described in (A) to (D) were selected, respectively.
The case where the expression level of mRNA in the carcinogen administration group or the non-carcinogen administration group is 1.5 times or more or 1/1.5 or less of the expression level of the corresponding mRNA expressed in the control group was determined to be significant. In this connection, the determination as to whether or not the change is significant was performed by taking into consideration the direction of increase or decrease in the expression level. In the case where the direction of increase or decrease is different as compared with the case where another carcinogen was administered, the change was determined to be not significant.

rodent = settings: in vivo; cited from earlier work

## Cc1ccccc1[N+](=O)[O-] [TS087, o-Nitrotoluene]
[1]; Gene No. 154, Rn.185941, group (C)
  Behavior of gene caused by administration of chemical substance: −
[1]; Gene No. 533, Rn.106184, group (C)
  Behavior of gene caused by administration of chemical substance: +
[1]; Gene No. 725, Rn.108075, group (C)
  Behavior of gene caused by administration of chemical substance: +
[1]; Gene No. 813, Rn.201760, group (C)
  Behavior of gene caused by administration of chemical substance: −
[1]; Gene No. 893, Rn.164817, group (C)
  Behavior of gene caused by administration of chemical substance: −
[1]; Gene No. 1119, Rn.9757, group (C)
  Behavior of gene caused by administration of chemical substance: −
[1]; Gene No. 1131, Rn.144946, group (C)
  Behavior of gene caused by administration of chemical substance: −
[1]; Gene No. 1163, Rn.11766, group (C)
  Behavior of gene caused by administration of chemical substance: −
[1]; Gene No. 1334, Rn.120914, group (C)
  Behavior of gene caused by administration of chemical substance: −
[1]; Gene No. 1494, Rn.1430, group (B)
  Behavior of gene caused by administration of chemical substance: +
[1]; Gene No. 1562, Rn.14744, group (C)
  Behavior of gene caused by administration of chemical substance: −
[1]; Gene No. 1741, Rn.1647, group (C)
  Behavior of gene caused by administration of chemical substance: −
[1]; Gene No. 1993, Rn.18728, group (C)
  Behavior of gene caused by administration of chemical substance: −
[1]; Gene No. 2026, Rn.167075, group (A)
  Behavior of gene caused by administration of chemical substance: +
[1]; Gene No. 2045, Rn.19329, group (B)
  Behavior of gene caused by administration of chemical substance: −
[1]; Gene No. 2203, Rn.21240, group (B)
  Behavior of gene caused by administration of chemical substance: −
[1]; Gene No. 2494, Rn.23969, group (C)
  Behavior of gene caused by administration of chemical substance: −
[1]; Gene No. 2546, Rn.24561, group (C)
  Behavior of gene caused by administration of chemical substance: −
[1]; Gene No. 3776, Rn.43232, group (C)
  Behavior of gene caused by administration of chemical substance: −
[1]; Gene No. 3929, Rn.4620, group (C)
  Behavior of gene caused by administration of chemical substance: −
[1]; Gene No. 4095, Rn.119024, group (C)
  Behavior of gene caused by administration of chemical substance: −
[1]; Gene No. 4218, Rn.167075, group (A)
  Behavior of gene caused by administration of chemical substance: +
[1]; Gene No. 4846, Rn.144554, group (A)
  Behavior of gene caused by administration of chemical substance: +
[1]; Gene No. 4973, Rn.118529, group (C)
  Behavior of gene caused by administration of chemical substance: +
[1]; Gene No. 5600, Rn.9836, group (A)
  Behavior of gene caused by administration of chemical substance: +
[1]; Gene No. 5634, Rn.9862, group (C)
  Behavior of gene caused by administration of chemical substance: −
[1]; Gene No. 5726, Rn.9939, group (D)
  Behavior of gene caused by administration of chemical substance: −
[1]; Gene No. 5878, Rn.143213, group (C)
  Behavior of gene caused by administration of chemical substance: −
[1]; Gene No. 6026, Rn.167685, group (C)
  Behavior of gene caused by administration of chemical substance: −
[1]; Gene No. 6182, Rn.5834, group (A)
  Behavior of gene caused by administration of chemical substance: +
[1]; Gene No. 6303, Rn.123063, group (C)
  Behavior of gene caused by administration of chemical substance: +
[1]; Gene No. 6620, Rn.120914, group (C)
  Behavior of gene caused by administration of chemical substance: −
[1]; Gene No. 6742, Rn.9779, group (C)
  Behavior of gene caused by administration of chemical substance: −
rodent
  Carcinogenicity: C+
